Test results from patent US20130065897A1, “COMPOUNDS, PREPARATION AND USES THEREOF” (PETER MACCALLUM CANCER INSTITUTE, priority 2009, published 2013).

Legend:
[1] = tested on: KHYG-1 NK cell-mediated lysis of K562 cells; experiment: Inhibition of KHYG-1 NK cell-mediated lysis of K562 cells (51Cr release); type: cell-based; conditions: K562 target cells, Effector:Target 2:1, 4 hours 37° C.
Procedure, shortened: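 KHYG-1 NK effector cells in RPMI+0.1% BSA were preincubated with compounds up to 20 μM for 20 minutes at RT. ⁵¹Cr-labelled K562 targets were then added (E:T 2:1) for 4 hours at 37 °C, and ⁵¹Cr release gamma-counted as percent specific cytotoxicity, mean of triplicates ± SEM.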

KHYG-1 NK cells = experiment: Toxicity to KHYG-1 NK cells (trypan blue viability); type: cell-based; conditions: viable cells as percentage of total (% viability), 18 to 24 hours
Procedure: Toxicity to KHYG-1 NK Cells
KHYG-1 cells were washed and resuspended in RPMI+0.1% BSA at 4×10^5 cells/ml and 50 μl of KHYG-1 cells were dispensed to each well of a 96-well V-bottom plate. Test compounds were added to KHYG-1 cells at a concentration of 20 μM and incubated at RT for 20 minutes. 100 μL of RPMI 0.1% BSA was added and the cells were incubated for 4 hours at 37° C. then washed ×3 in RPMI+0.1% BSA. Cells were then resuspended in 200 μl of complete medium and incubated for 18 to 24 hours at 37° C. Trypan blue was added to each well and viable (clear) cells counted as a percentage of total (clear+blue) cell number (% viability).

recombinant perforin = recombinant perforin (UniProt P10820); type: cell-based; conditions: read-out: Jurkat IC50; recombinant perforin pre-incubated 30 min with compound; 51Cr-labelled Jurkat cells, 0.1% BSA, 37° C. 4 hours
Chain of recombinant perforin (P10820 whole entry): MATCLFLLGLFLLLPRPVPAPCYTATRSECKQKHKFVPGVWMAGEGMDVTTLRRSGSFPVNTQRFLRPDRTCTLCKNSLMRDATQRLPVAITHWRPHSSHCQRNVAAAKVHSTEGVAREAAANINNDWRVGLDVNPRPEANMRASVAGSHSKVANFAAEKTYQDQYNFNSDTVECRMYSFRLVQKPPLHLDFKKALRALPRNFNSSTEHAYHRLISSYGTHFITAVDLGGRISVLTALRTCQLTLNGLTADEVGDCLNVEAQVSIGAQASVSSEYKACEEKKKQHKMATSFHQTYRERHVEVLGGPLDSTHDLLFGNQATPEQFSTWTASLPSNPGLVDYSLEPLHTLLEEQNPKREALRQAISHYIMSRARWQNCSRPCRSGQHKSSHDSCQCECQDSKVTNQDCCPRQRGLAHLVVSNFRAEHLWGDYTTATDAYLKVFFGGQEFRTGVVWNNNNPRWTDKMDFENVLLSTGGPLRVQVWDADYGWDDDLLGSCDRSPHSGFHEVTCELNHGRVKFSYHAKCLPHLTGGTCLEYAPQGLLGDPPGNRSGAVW
Procedure, shortened: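 Jurkat T lymphoma target cells labelled 1 h with 100 μCi ^51Cr, washed, resuspended at 1×10^5 cells/mL in RPMI with 0.1% BSA; lysis read as ^51Cr release into supernatant by gamma counting. Triplicate points; IC50 from the concentration range.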

Compound	melting point	inhibition at 20 µM [1] [%]	percent viable KHYG-1 cells (trypan blue) at 20 μM (KHYG-1 NK cells) [%]	IC50 (recombinant perforin) [nM]
[H]/N=C1/NC(=O)/C(=C\c2ccc(-c3ccc4c(c3)COC4=O)s2)N1C [Cmpd 4, (E,Z)-2-Imino-1-methyl-5-((5-(1-oxo-1,3-dihydroisobenzofuran-5-yl)thiophen-2-yl)methylene)imidazolidin-4-one]	> 300 °C	50	100	
O=C1NC(=S)N/C1=C\c1cccc(-c2ccc3c(c2)COC3=O)c1 [Cmpd 5, (E,Z)-5-(3-(1-Oxo-1,3-dihydroisobenzofuran-5-yl)benzylidene)-2-thioxoimidazolidin-4-one]	285 to 288 °C	64	97	
O=C1NC(=S)N/C1=C\c1ccc(-c2ccc3c(c2)COC3=O)cc1 [Cmpd 6, (E,Z)-5-(4-(1-Oxo-1,3-dihydroisobenzofuran-5-yl)benzylidene)-2-thioxoimidazolidin-4-one]	> 300 °C	50	95	
O=C1NC(=S)N/C1=C\c1ccc(-c2ccc3c(c2)COC3=O)cn1 [Cmpd 8, (E,Z)-5-((5-(1-oxo-1,3-dihydroisobenzofuran-5-yl)pyridin-2-yl)methylene)-2-thioxoimidazolidin-4-one]	> 300 °C	57	96	
O=C1NC(=S)N/C1=C\c1csc2ccc(-c3ccc4c(c3)COC4=O)cc12 [Cmpd 9]	> 300 °C	80	0	
O=C1NC(=S)N/C1=C/c1cc2cc(-c3ccc4c(c3)COC4=O)ccc2o1 [Cmpd 10, (2)-5-((5-(1-Oxo-1,3-dihydroisobenzofuran-5-yl)benzofuran-2-yl)methylene)-2-thioxoimidazolidin-4-one]	> 300 °C	51	88	620
O=C1NC(=S)N/C1=C/c1cc2ccc(-c3ccc4c(c3)COC4=O)cc2[nH]1 [Cmpd 11, (E,Z)-5-((6-(1-Oxo-1,3-dihydroisobenzofuran-5-yl)-1H-indol-2-yl)methylene)-2-thioxoimidazolidin-4-one]	> 300 °C	100	86	2340
O=C1NC(=S)N/C1=C/c1cc2cc(-c3ccc4c(c3)COC4=O)ccc2[nH]1 [Cmpd 12, (E,Z)-5-((5-(1-Oxo-1,3-dihydroisobenzofuran-5-yl)-1H-indol-2-yl)methylene)-2-thioxoimidazolidin-4-one]	> 300 °C	74	94	720
O=C1NC(=S)N/C1=C\c1ccc2ccc(-c3ccc4c(c3)COC4=O)cc2n1 [Cmpd 13]	> 310 °C	52	70	1720
O=C1NC(=S)N/C1=C/c1cc(-c2ccc3c(c2)COC3=O)cs1 [Cmpd 15, (E,Z)-5-((4-(1-Oxo-1,3-dihydroisobenzofuran-5-yl)thiophen-2-yl)methylene)-2-thioxoimidazolidin-4-one]	> 300 °C	67	96	
COc1ccc(-c2ccc(/C=C3/NC(=S)NC3=O)s2)cc1 [Cmpd 22, (E,Z)-5-((5-(4-Methoxyphenyl)thiophen-2-yl)methylene)-2-thioxoimidazolidin-4-one]	288 to 293 °C	78	100	8930
O=C1C/C(=C/c2ccc(-c3ccc4c(c3)COC4=O)s2)C(=O)N1 [Cmpd 36, (E,Z)-3-((5-(1-Oxo-1,3-dihydroisobenzofuran-5-yl)thiophen-2-yl)methylene)pyrrolidine-2,5-dione]	> 295 °C	51	65	
O=C1NCC/C1=C\c1ccc(-c2ccc3c(c2)COC3=O)s1 [Cmpd 37, (E,Z)-3-((5-(1-Oxo-1,3-dihydroisobenzofuran-5-yl)thiophen-2-yl)methylene)pyrrolidin-2-one]	224 to 227 °C	20	97	
O=C1NC(=S)N/C1=C/c1ccc(-c2ccc(C(=O)NCCN3CCOCC3)cc2)s1 [Cmpd 45, (E,Z)-N-(2-Morpholinoethyl)-4-(5-((5-oxo-2-thioxoimidazolidin-4-ylidene)methyl)thiophen-2-yl)benzamide]	248 to 252 °C	78	88	> 20000
O=C1NC(=S)N/C1=C/c1cnc(-c2ccc3c(c2)COC3=O)o1 [Cmpd 54, (E,Z)-5-((2-(1-Oxo-1,3-dihydroisobenzofuran-5-yl)oxazol-5-yl)methylene)-2-thioxoimidazolidin-4-one]	> 295 °C	55	100	
O=C1NC(=S)N/C1=C\c1cnc(-c2ccc3c(c2)COC3=O)s1 [Cmpd 55, (E,Z)-5-((2-(1-Oxo-1,3-dihydroisobenzofuran-5-yl)thiazol-5-yl)methylene)-2-thioxoimidazolidin-4-one]	> 300 °C	53	95	1720
O=C1NC(=S)N/C1=C\c1cc(-c2ccc3c(c2)COC3=O)no1 [Cmpd 58, (E,Z)-5-((3-(1-Oxo-1,3-dihydroisobenzofuran-5-yl)isoxazol-5-yl)methylene)-2-thioxoimidazolidin-4-one]	> 300 °C	39	82	
O=C1NC(=S)N/C1=C\c1csnc1-c1ccc2c(c1)COC2=O [Cmpd 59, (E,Z)-5-((3-(1-Oxo-1,3-dihydroisobenzofuran-5-yl)isothiazol-4-yl)methylene)-2-thioxoimidazolidin-4-one]	> 300 °C	24	93	
O=C1NC(=S)N/C1=C/c1ccc(-c2ccc3c(c2)CN(CCN2CCOCC2)C3=O)s1 [Cmpd 67, (E,Z)-2-(2-Morpholinoethyl)-5-(5-((5-oxo-2-thioxoimidazolidin-4-ylidene)methyl)thiophen-2-yl)isoindolin-1-one]	261 to 264 °C	78	73	
CN(C)CCCN1Cc2cc(-c3ccc(/C=C4/NC(=S)NC4=O)s3)ccc2C1=O [Cmpd 74, (E)-2-(3-(Dimethylamino)propyl)-5-(5-((5-oxo-2-thioxoimidazolidin-4-ylidene)methyl)thiophen-2-yl)isoindolin-1-one]	212 °C (dec.)	53	82	> 20000
O=C1NC(=S)N/C1=C/c1cc2cc(-c3ccc4c(c3)COC4=O)ccc2s1 [Cmpd 79, (E,Z)-5-((5-(1-Oxo-1,3-dihydroisobenzofuran-5-yl)benzo[b]thiophen-2-yl)methylene)-2-thioxoimidazolidin-4-one]	> 305 °C	59	72	
O=C1NC(=S)N/C1=C/c1cc2ccc(-c3ccc4c(c3)COC4=O)cc2s1 [Cmpd 80, (E,Z)-5-((6-(1-Oxo-1,3-dihydroisobenzofuran-5-yl)benzo[b]thiophen-2-yl)methylene)-2-thioxoimidazolidin-4-one]	> 310 °C	55	75	360
